Data from publication PMC8179049 (Chemical Science, 2020).
Several values for one entry are separate records, joined by “and”; a condition that tells them apart may be missing. Identical values can stand only once. Like-named read-outs stand apart in the source and are kept apart here.

Key:
[1] = tested on: glutamic oxaloacetic aminotransferase; design: method as in doi:10.1002/1615-4169(200108)343:6/7<692::AID-ADSC692>3.0.CO; conditions: cited from earlier work
[2] = molecular target: T1, human AspH (His6-AspH315-758) (Homo sapiens, UniProt Q12797); experiment: NMR monitoring of AspH-catalyzed oxidative decarboxylation, with final SPE-MS analysis; type: biochemical; conditions: for AspH-catalyzed oxidative decarboxylation of the 2OG derivative (NMR): 10 μM His6-AspH315-758, 150 μM hFX-CP101-119, 150 μM 2OG derivative, 50 μM FAS, pH 7.5, 25 °C; for hydroxylation (conversion) of hFX-CP101-119 in the final reaction mixture by SPE-MS / time to complete AspH-catalyzed oxidative decarboxylation (NMR): 10 μM AspH, 150 μM cosubstrate
T1 construct: N-Terminally His6-tagged human AspH315-758 (His6-AspH315-758) was produced in Escherichia coli BL21 (DE3); made in house; host or cells: Escherichia coli BL21 (DE3), pET-28a(+) vector
T1 sequence (Q12797 315-758): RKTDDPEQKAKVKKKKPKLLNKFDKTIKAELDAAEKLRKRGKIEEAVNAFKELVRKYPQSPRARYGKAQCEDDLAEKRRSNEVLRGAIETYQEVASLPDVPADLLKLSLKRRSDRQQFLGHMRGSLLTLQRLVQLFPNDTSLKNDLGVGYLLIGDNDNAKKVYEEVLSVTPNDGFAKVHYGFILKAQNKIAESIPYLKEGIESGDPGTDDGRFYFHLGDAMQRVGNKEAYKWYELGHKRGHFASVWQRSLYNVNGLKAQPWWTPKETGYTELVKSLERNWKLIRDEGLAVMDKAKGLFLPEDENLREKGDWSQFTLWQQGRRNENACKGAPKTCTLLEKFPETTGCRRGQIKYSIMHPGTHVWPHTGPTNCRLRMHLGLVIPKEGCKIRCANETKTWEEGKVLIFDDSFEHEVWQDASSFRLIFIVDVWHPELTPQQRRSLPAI
Procedure: 2-methylsuccinate and terephthalate, respectively (continues on the following two pages). The AspH- […]
700 NMR machine equipped with a 5mm 1H(13C/15N) inverse cryoprobe. Assay conditions: 10 μM His6-AspH315- […]
iron(II) sulfate hexahydrate (FAS, (NH4)2Fe(SO4)2·6H2O) in 50 mM aqueous Tris-d11 containing 10 %v/v D2O (pH […]
product of the AspH-catalyzed reaction, was determined using SPE-MS (Supporting Information, Section 9) after […]
of the 1H NMR spectrum of commercial succinate in 50 mM aqueous Tris-d11 containing 10 %v/v D2O (pH 7.5, 25° […]
(1 picture or pasted object on this page, not shown here) […]
using a Bruker AVIII 700 NMR machine equipped with a 5mm 1H(13C/15N) inverse cryoprobe. Assay conditions: […]
ammonium iron(II) sulfate hexahydrate (FAS, (NH 4)2Fe(SO4)2·6H2O) in 50 mM aqueous Tris -d11 containing […]
which is the product of the AspH-catalyzed reaction, was determined using SPE-MS (Supporting Information, Section 9) after completion of the NMR experiments. […]
spectrum of synthetic 34 in 50 mM aqueous Tris-d11 containing 10 %v/v D2O (pH 7.5, 25° C); (b) Close-up (3.0-0.9 ppm) of the 1H NMR spectrum of commercial 2,2-dimethylsuccinate (52) in 50 mM aqueous Tris-d11

[3] = molecular target: T2, human AspH (Homo sapiens, UniProt Q12797); experiment: SPE-MS AspH turnover assay in the absence of 2OG (2OG derivative as cosubstrate); conditions: 330 μM 2OG or 2OG derivative, 0.1 μM AspH, 2 μM hFX-CP101-119, 50 μM FAS, t = 15 min;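 further: percent conversion = hydroxylated cyclic peptide peak area relative to summed substrate plus product areas, taken from +2 charge state ion chromatograms by solid phase extraction MS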
T2 sequence (Q12797 315-758): T1 sequence (Q12797 315-758)
Procedure: AspH assays were performed as described in the ESI, ^† data are shown as the mean of three independent runs (n = 3; mean ± standard deviation, SD).
AspH assays were performed as described in Section 9 of the Supporting Information using 0.1 μM AspH, 2 μM
a positive control in the SPE-MS AspH turnover assays (Entry 1).
dependent conversion of the AspH substrate hFX-CP101-119 (Supporting Figure S1d). %-Substrate conversion is
AspH assays were performed as
described in Section 9 of the Supporting Information using 0.1 μM AspH, 2 μM hFX-CP101-119, 50 μM FAS, 330
AspH inhibition assays were incubated for 6 rather than 7 minutes before the enzyme reaction was
stopped by the addition of 10%v/v aqueous formic acid.
MS-analyses were performed using a RapidFire RF 365 high-throughput sampling robot (Agilent) attached to an
iFunnel Agilent 6550 accurate mass quadrupole time-of-flight (Q-TOF) mass spectrometer operated in the positive
ionization mode. Assay samples were aspirated under vacuum for 0.4 s and loaded onto a C4 solid phase extraction (SPE) cartridge. After loading, the C4 SPE cartridge was washed with 0.1%v/v aqueous formic acid to remove
non-volatile buffer salts (5 s, 1.5 mL/min). The peptide was eluted from the SPE cartridge with 0.1%v/v aqueous
formic acid in 85/15v/v acetonitrile/water into the mass spectrometer (5 s, 1.25 mL/min) and the SPE cartridge re-
equilibrated with 0.1%v/v aqueous formic acid (1 s, 1.25 mL/min). The mass spectrometer parameters were:
capillary voltage (4000 V), nozzle voltage (1000 V), fragmentor voltage (365 V), gas temperature (280°C), gas
flow (13 L/min), sheath gas temperature (350°C), sheath gas flow (12 L/min). The m/z +2 charge states of the
cyclic peptide (substrate) and the hydroxylated cyclic peptide (product) were used to extract ion chromatogram
data, peak areas were integrated using RapidFire Integrator software (Agilent). Data were exported into Microsoft
Excel and used to calculate the % conversion of the hydroxylation reaction using the equation: % conversion =
100 x (integral product cyclic peptide) / (integral substrate cyclic peptide + integral product cyclic peptide).
Normalized dose-response curves (2,4-PDCA and DMSO controls) were obtained from the raw data by non-linear
regression (GraphPad Prism 5) and used to determine IC50-values. The standard deviation (SD) of three
independent IC50 determinations (n = 3) was calculated using GraphPad Prism 5. Z’-factors were calculated
according to the cited literature using Microsoft Excel (Supporting Figure S3).14

[4] = molecular target: T1, human AspH (His6-AspH315-758); experiment: SPE-MS AspH inhibition assay; type: biochemical; conditions: mean ± SD, n = 3
Procedure: 6. Recombinant AspH production and purification
N-Terminally His6-tagged human AspH315-758 (His6-AspH315-758) was produced in Escherichia coli BL21 (DE3) cells using a pET-28a(+) vector and purified by Ni(II)-affinity chromatography (HisTrap HP column, GE Healthcare; 1 mL/min flow rate) and size-exclusion chromatography (HiLoad 26/60 Superdex 75 pg 300 mL column; 1 mL/min) using an ÄKTA pure machine (GE Healthcare) as previously reported.1,4 AspH was >95% pure by SDS-PAGE and MS analysis and had the anticipated mass (calculated for His6-AspH315-758: 54519 Da, found: 54519 Da).1 Purified AspH was stored in 50 mM HEPES buffer (pH 7.5, 150 mM NaCl) at a concentration of 125 μM at -78 °C; fresh aliquots were used for all AspH assays.
7. AspH substrate synthesis
AspH substrates were designed based on the sequence of EGFD1 of human coagulation factor X (hFX amino acids 86-124), which is a reported cellular AspH substrate.2 All substrates were prepared with a C-terminal amide.
The hFX-EGFD186-124-4Ser peptide (hFX amino acids 86-124; Supporting Figure S1c),1 used for crystallography experiments, was synthesized by solid phase peptide synthesis (SPPS) and purified by GL Biochem (Shanghai) Ltd (Shanghai, China). The thioether linked cyclic peptide hFX-CP101-119 (hFX amino acids 101-119; Supporting
Figure S1d), which was used as substrate in AspH SPE-MS assays,4 was synthesized by an intramolecular thioetherification cyclization reaction from the corresponding linear peptide (D-Ala replacing Cys101hFX and Ser replacing Cys112hFX) which was obtained by microwave-assisted solid phase peptide synthesis using the Fmoc-protection strategy as described.4
8. AspH inhibition assays […]
water; ammonium iron(II) sulfate hexahydrate, FAS, (NH 4)2Fe(SO4)2·6H2O: 400 mM in 20 mM HCl diluted to 1 mM in Milli-Q® Ultrapure water) were freshly prepared each day from commercially sourced solids (Sigma […]
(Greiner) in an approximately three-fold and 11-point dilution series (100 μM top concentration) using an ECHO 550 acoustic dispenser (Labcyte). DMSO and 2,4 -PDCA were used as negative and positive controls , respectively .
The final DMSO concentration was kept constant at 0.5%v/v throughout all experiments (using the DMSO backfill option of the acoustic dispenser). Each reaction was performed in technical duplicates in adjacent wells of the assay plates; additionally, assays were performed in three independent technical duplicates on different days using different DMSO inhibitor solutions. […]
dispensed across the inhibitor-containing 384-well assay plates with a multidrop dispenser (ThermoFischer Scientific) at 20°C under an ambient atmosphere. The plates were subsequently centrifuged (1000 rpm, 30 s) and incubated for 15 minutes at 20°C. The Substrate Mixture (25 μL/well), containing 2.0 μM hFX-CP101-119, 200 μM […]
Note: The multidrop dispenser ensured proper mixing of the Enzyme and the Substrate Mixtures which was essential for assay reproducibility. The plates were centrifuged (1000 rpm, 30 s) and af ter incubating for 7 minutes, […]
centrifuged (1000 rpm, 60 s) and analysed by MS.
(§1) The mass spectrometer parameters were:
(§2) Data were exported into Microsoft
(§3) The standard deviation (SD) of three
(§4) Z’-factors were calculated
9. Determination of kinetic parameters […]
(§5) in 50 mM HEPES buffer (pH 7.5).

[5] = molecular target: T1, human AspH (His6-AspH315-758); design: method as in PMID 33069066; conditions: ref 41a; read-out: IC50 (inhibition of AspH, literature); cited from earlier work
[6] = molecular target: T1, human AspH (His6-AspH315-758); design: method as in PMID 32107312; conditions: cited from earlier work
[7] = molecular target: T1, human AspH (His6-AspH315-758); experiment: AspH steady-state kinetics by SPE-MS turnover assays; type: biochemical; conditions: for K app m / v app max: 0.1 μM His6-AspH315–758, 2.0 μM hFX-CP101–119, in the presence of LAA, mean ± SD, n = 3
Procedure: Supporting Figure S6. Initial hydroxylation rates of AspH-catalyzed peptide hydroxylations used to
Measurement times were normalized to the first sample injection analyzed after the addition of the Enzyme
as §1, §2, §3, §4
9. Determination of kinetic parameters
as §5

[8] = 50 nM His6-AspH315–758, 1.0 μM hFX-CP101–119, 3 μM 2OG, read-out: IC50 (inhibition of AspH)
[9] = 50 nM His6-AspH315–758, 1.0 μM hFX-CP101–119, 3 μM 2OG

SMILES: CC(C)(CC(=O)C(=O)O)C(=O)O [compound 34, 4,4-Dimethyl-2OG]
- substitution for 2OG in transamination reactions [1]: does not efficiently substitute for 2OG
- AspH-catalyzed oxidative decarboxylation of the 2OG derivative (NMR) [2]: undergoes slow AspH-catalyzed oxidative decarboxylation
- hydroxylation (conversion) of hFX-CP101-119 in the final reaction mixture by SPE-MS ([2]; t = 15 h): ~ 95%
- AspH-catalyzed substrate conversion (hydroxylation of hFX-CP101-119) [3]: < 1%
- IC50 ([4]; 50 nM His6-AspH315-758, 1.0 μM hFX-CP101-119, read-out: IC50 (ESI Fig. S4)): 310 ± 100 nM
- IC50 [4, 8]: ~300 nM and 300 nM
- IC50 ([4]; IC50 at 200 μM 2OG (ESI Table S1), assay concentration of 200 μM 2OG): 6400 ± 400 nM
- IC50 ([4]; IC50 at 400 μM 2OG (ESI Table S1), assay concentration of 400 μM 2OG): 10000 ± 3100 nM
- IC50 ([4]; IC50 at 600 μM 2OG (ESI Table S1), assay concentration of 600 μM (0.6 mM) 2OG): 18700 nM and ~18700 nM

SMILES: O=C(O)C(=O)CC(Cc1ccccc1)C(=O)O (stereo not drawn) [compound 32, 4-benzyl-2OG]
- AspH-catalyzed oxidative decarboxylation of the 2OG derivative (NMR) [2]: apparently not turned over
- AspH-catalyzed substrate conversion (hydroxylation of hFX-CP101-119) [3]: < 1%
- melting point: > 240 °C (dec.)
- IC50 [4, 8]: 430 ± 50 nM

SMILES: O=C(O)c1ccnc(C(=O)O)c1 [2,4-PDCA, pyridine-2,4-dicarboxylate]
- IC50 [5]: ~30 nM

SMILES: O=C(O)CCC(=O)C(=O)O [2OG, 2-Oxoglutarate, reference compound]
- K app m (2OG) in the absence of LAA [6]: ~0.6 µM
- v app max (2OG) in the absence of LAA [6]: ~0.0168 µM/s
- k cat [7]: 0.17 ± 0.03 s⁻¹
- K app m [7]: 1.3 ± 0.3 µM
- v app max [7]: 0.015 ± 0.0009 µM/s
- time to complete AspH-catalyzed oxidative decarboxylation (NMR) [2]: ≤ 5 min
- hydroxylation (conversion) of hFX-CP101-119 in the final reaction mixture by SPE-MS ([2]; t = 5 min): > 95%

SMILES: O=C(O)C(=O)c1ccc(C(=O)O)cc1 [compound 41, 4-carboxyphenylglyoxylic acid]
- K app m [7]: 61.9 ± 11.0 µM
- v app max [7]: 0.004 ± 0.0003 µM/s
- K app m relative to that for 2OG (times higher) ([7]; ratio to K app m of 2OG): ~47
- time to complete AspH-catalyzed oxidative decarboxylation (NMR) [2]: ≤ 5 min
- AspH-catalyzed substrate conversion (hydroxylation of hFX-CP101-119) [3]: ~80%
- melting point: > 350 °C (dec.)
- IC50 (inhibition of AspH) [4, 9]: did not inhibit
- IC50 (inhibition of AspH) ([4]; 50 nM His6-AspH315–758, 1.0 μM hFX-CP101–119, 3 μM 2OG, listed as C00012): Inactive

SMILES: CC(CC(=O)O)C(=O)C(=O)O (stereo not drawn) [compound 16, 3-methyl-2OG]
- K app m [7]: 0.27 ± 0.04 µM
- v app max [7]: 0.0069 ± 0.0002 µM/s
- time to complete AspH-catalyzed oxidative decarboxylation (NMR) [2]: ≤ 5 min
- AspH-catalyzed substrate conversion (hydroxylation of hFX-CP101-119) [3]: > 95%
- IC50 (inhibition of AspH) [4, 9]: Inactive
- IC50 [4, 8]: > 50000 nM

SMILES: O=C(O)C(=O)N[C@H](Cc1ccccc1)C(=O)O [NOFD, N-oxalyl-D-phenylalanine]
- IC50 [5]: ~15500 nM

SMILES: O=C(O)C(=O)CC(CCCc1ccccc1)C(=O)O (stereo not drawn) [compound 31]
- AspH-catalyzed substrate conversion (hydroxylation of hFX-CP101-119) [3]: < 1%
- melting point: > 220 °C (dec.)
- IC50 [4, 8]: 250 ± 50 nM
